According to patent US20230348487A1, “2-AMINOPYRIMIDINE COMPOUND AND PHARMACEUTICAL COMPOSITION THEREOF AND APPLICATION THEREOF” (GUANGZHOU SALUSTIER BIOSCIENCES CO., LTD., priority 2021, published 2023):
Where “and” joins values, the source holds several entries; their conditions need not be identical. Equal values may be shown once. Read-outs that look alike come from different tables or passages of the source.

Experiments:
JAK3 = JAK3 (Homo sapiens (Human), UniProt P52333); experiment: Z′-Lyte kinase inhibitory activity test; type: biochemical; conditions: for JAK3 kinase inhibitory activity and selectivity (in words): summary of Table 3, activity maintained at ATP 1 mM
Procedure: (§1) Test method: Firstly, test compounds were prepared into 10 mM stock solution with DMSO, and continuously diluted into 10 concentrations at a 3-fold gradient for later use. 5X reaction buffer was diluted with deionized water into 1×reaction buffer (50 mM HEPES pH 7.5, 0.01% Brij-35, 10 mM MgCl2, 1 mM EGTA), which was used to prepare a mixture of kinase and peptide substrate, as well as a phosphorylated peptide substrate solution. The kinase concentration was determined based on enzyme titration, and the final concentration of peptide substrate and phosphorylated peptide substrate was 2 μM. 5 μL of mixture substrate of kinase and peptide substrate was added to each well on the 384 well plate. Then 5 nL of the test compound (starting with a final concentration of 10 μM) was added with an Echo520 Sampler. […] An additional 100% phosphorylation well (5 μL phosphorylated peptide substrate solution), a 0% phosphorylated well (5 μL of a mixture of kinase and peptide substrate, without test compounds and ATP), and a 0% inhibitory well (5 μL of a mixture of kinase and peptide substrate and appropriate concentration of ATP) were set as control. Two repeats were set for each concentration. The above reaction system was incubated at 30° C. for 1.5 hours. […] 2.5 μL of the diluted mixture was added to each well and the system was incubated at 30° C. for another 1 hour. […] The substrate phosphorylation rate was obtained by calculating the ratio, and the activity of the kinase and the effect of the inhibitor on the kinase was further calculated. Every experiment was repeated at least three times.

JAK2 = JAK2 (Homo sapiens (Human), UniProt O60674); experiment: Z′-Lyte kinase inhibitory activity test; type: biochemical
Procedure: as §1

JAK1 = JAK1 (Homo sapiens (Human), UniProt P23458); experiment: Z′-Lyte kinase inhibitory activity test; type: biochemical; conditions: ATP concentration Km
Procedure: as §1

TYK2 = TYK2 (Homo sapiens (Human), UniProt P29597); experiment: Z′-Lyte kinase inhibitory activity test; type: biochemical; conditions: ATP concentration Km
Procedure: as §1

[1] = system: human chronic myeloid leukemia cell line K562; experiment: CCK-8 in vitro proliferation inhibition; type: cell-based; conditions: read-out: Inhibitory activity (IC50) on cell proliferation, K562
Procedure: (§2) Cell lines: human chronic myeloid leukemia cell line K562, human acute myeloid leukemia cell line U937, human T lymphocyte leukemia cell line HuT78, and human T lymphoblastic lymphoma cell line Jurkat. Cells were purchased from the Chinese Academy of Sciences Stem Cell Bank or ATCC.
(§3) […] were cultured overnight and suspended cells were directly stimulated with drugs. […] Two repeats were set for each concentration, with a final volume of 200 μL. […] The absorbance values at 450 nm and 650 nm were measured using a microplate reader, and the increment Z (A450-A650) was derived. The inhibitory rate of drugs on cell growth was calculated by GraphPad Prism 8.0.0 through the following formula:
(§4) Inhibition rate (%)(ODcontrol−ODdosing)/ODcontrol×100%
(§5) The half inhibitory concentration (IC50) was calculated. Every experiment was repeated at least three times.

[2] = system: human acute myeloid leukemia cell line U937; experiment: CCK-8 in vitro proliferation inhibition; type: cell-based; conditions: read-out: Inhibitory activity (IC50) on cell proliferation, U937
Procedure: as §2, §3, §4, §5

[3] = system: human T lymphoblastic lymphoma cell line Jurkat; experiment: CCK-8 in vitro proliferation inhibition; type: cell-based; conditions: Homo sapiens, Jurkat, 72 hours, read-out: Inhibitory activity (IC50) on cell proliferation, JURKAT
Procedure: as §2, §3, §4, §5

[4] = system: human T lymphocyte leukemia cell line HuT78; experiment: CCK-8 in vitro proliferation inhibition; type: cell-based; conditions: Homo sapiens, HuT78, 72 hours, read-out: Inhibitory activity (IC50) on cell proliferation, HUT78
Procedure: as §2, §3, §4, §5

Sequence of JAK1 (P23458 whole entry): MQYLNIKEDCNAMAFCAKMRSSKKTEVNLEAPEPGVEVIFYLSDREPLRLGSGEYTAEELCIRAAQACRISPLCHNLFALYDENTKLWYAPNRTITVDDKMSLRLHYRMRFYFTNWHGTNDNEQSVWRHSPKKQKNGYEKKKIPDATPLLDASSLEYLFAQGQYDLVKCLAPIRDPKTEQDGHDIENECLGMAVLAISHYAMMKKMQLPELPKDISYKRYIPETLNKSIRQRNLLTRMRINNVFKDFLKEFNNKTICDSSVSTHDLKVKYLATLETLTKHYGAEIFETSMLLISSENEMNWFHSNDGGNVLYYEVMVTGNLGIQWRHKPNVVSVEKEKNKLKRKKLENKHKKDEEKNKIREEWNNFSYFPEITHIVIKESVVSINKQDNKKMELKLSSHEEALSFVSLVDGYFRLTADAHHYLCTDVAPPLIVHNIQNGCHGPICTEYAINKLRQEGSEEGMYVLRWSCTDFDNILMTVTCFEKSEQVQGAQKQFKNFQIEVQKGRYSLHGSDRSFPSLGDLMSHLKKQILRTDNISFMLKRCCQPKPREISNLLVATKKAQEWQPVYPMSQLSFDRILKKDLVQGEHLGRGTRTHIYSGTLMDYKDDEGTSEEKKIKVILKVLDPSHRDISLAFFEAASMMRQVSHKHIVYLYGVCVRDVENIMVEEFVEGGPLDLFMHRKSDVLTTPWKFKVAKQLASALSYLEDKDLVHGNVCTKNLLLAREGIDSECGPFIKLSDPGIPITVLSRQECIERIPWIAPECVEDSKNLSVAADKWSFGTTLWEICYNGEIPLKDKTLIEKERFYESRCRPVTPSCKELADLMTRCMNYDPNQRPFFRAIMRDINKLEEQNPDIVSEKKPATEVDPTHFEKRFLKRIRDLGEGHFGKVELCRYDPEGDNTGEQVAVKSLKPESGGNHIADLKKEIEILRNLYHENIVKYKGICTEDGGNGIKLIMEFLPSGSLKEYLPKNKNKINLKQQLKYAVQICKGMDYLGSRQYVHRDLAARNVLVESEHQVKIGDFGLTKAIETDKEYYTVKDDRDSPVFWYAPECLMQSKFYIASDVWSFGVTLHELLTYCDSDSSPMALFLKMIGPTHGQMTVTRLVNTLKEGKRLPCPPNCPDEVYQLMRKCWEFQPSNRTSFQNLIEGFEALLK
Sequence of JAK3 (P52333 whole entry): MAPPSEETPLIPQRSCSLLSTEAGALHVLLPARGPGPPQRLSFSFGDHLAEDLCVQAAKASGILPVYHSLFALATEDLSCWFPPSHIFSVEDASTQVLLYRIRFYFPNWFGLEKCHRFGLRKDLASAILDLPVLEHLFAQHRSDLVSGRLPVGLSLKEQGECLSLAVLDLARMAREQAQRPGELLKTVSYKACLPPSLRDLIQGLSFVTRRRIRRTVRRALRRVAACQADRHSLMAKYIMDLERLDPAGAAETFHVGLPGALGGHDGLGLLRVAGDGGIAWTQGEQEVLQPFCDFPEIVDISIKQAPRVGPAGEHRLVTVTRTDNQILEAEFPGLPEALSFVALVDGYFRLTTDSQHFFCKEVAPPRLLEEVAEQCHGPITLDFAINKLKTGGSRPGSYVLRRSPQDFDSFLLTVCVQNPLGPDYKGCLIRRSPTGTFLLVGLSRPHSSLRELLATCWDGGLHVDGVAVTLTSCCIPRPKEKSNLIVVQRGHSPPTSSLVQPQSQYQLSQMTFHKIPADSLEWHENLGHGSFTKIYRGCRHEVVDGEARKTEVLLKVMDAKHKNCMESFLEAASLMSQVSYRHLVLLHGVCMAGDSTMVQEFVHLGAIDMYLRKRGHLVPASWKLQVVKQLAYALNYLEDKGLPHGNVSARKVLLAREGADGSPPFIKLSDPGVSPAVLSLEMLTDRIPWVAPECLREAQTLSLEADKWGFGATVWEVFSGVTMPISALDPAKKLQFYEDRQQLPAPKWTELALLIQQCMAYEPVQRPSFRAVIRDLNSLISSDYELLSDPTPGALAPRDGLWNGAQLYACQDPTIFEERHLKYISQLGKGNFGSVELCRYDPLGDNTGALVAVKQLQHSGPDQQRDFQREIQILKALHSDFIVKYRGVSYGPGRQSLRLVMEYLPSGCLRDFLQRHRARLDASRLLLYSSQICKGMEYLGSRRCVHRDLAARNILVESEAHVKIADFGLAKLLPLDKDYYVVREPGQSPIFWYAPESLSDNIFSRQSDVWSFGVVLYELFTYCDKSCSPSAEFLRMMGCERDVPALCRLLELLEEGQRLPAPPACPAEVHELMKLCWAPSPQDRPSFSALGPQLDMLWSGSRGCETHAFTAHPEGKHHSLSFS
Sequence of TYK2 (P29597 whole entry): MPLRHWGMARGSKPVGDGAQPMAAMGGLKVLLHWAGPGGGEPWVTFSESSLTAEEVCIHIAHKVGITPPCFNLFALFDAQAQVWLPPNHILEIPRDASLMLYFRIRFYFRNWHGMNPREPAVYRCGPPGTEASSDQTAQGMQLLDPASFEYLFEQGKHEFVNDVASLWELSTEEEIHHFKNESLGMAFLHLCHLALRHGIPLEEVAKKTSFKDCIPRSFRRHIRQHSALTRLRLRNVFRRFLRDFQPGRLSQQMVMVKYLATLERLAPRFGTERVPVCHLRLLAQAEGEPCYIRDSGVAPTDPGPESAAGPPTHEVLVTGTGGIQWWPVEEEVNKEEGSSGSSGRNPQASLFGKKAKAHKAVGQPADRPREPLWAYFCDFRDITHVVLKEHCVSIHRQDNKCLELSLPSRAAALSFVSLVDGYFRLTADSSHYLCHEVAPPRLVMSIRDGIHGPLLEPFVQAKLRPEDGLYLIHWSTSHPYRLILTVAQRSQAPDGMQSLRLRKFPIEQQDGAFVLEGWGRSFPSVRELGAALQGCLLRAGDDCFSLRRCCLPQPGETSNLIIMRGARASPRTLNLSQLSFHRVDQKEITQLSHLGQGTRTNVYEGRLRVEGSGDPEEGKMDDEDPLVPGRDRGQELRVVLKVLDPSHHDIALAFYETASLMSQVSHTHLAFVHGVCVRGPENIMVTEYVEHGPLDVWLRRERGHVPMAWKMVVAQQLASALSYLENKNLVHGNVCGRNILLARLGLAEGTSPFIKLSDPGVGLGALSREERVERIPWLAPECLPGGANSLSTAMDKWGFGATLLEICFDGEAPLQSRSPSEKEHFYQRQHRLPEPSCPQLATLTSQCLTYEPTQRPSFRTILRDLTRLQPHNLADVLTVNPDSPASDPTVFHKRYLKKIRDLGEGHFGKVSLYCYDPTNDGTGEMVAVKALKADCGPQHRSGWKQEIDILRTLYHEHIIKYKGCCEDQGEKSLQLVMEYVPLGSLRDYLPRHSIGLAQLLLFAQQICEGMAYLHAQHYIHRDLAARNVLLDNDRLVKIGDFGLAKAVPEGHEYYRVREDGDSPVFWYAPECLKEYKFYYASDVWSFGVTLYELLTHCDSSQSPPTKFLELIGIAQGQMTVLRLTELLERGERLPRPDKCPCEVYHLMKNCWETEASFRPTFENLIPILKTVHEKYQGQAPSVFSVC
Sequence of JAK2 (O60674 whole entry): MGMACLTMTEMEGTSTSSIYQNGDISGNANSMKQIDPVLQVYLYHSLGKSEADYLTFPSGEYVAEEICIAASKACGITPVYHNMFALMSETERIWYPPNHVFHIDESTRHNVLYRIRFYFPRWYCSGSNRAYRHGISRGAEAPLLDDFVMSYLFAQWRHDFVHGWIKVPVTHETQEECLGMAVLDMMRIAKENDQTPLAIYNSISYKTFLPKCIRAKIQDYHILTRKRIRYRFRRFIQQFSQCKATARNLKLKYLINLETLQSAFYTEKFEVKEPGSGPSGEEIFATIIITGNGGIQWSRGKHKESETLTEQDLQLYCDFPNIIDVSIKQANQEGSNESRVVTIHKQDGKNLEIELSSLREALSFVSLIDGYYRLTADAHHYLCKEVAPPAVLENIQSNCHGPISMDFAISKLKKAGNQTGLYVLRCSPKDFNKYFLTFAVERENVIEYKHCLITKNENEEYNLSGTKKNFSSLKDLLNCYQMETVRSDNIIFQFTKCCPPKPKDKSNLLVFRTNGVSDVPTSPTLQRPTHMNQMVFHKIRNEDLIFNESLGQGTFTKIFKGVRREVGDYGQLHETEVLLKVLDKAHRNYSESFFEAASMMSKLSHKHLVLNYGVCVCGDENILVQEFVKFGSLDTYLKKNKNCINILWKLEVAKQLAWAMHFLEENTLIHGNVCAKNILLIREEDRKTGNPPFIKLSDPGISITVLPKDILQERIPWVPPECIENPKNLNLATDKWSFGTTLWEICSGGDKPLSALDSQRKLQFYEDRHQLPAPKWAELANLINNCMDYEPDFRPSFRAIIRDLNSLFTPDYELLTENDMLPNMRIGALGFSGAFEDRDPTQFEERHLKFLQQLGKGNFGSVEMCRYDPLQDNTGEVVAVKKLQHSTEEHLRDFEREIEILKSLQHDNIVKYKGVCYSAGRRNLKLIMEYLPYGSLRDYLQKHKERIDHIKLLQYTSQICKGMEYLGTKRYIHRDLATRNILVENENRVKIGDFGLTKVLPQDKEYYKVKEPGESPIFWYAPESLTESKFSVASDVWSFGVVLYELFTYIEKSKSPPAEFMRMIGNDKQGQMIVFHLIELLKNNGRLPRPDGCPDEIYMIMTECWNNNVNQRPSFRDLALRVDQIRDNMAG

Row | SMILES | IC50 (JAK3; ATP concentration Km) | IC50 (JAK2; ATP concentration Km) | IC50 (JAK1) | IC50 (TYK2) | IC50 (JAK3; ATP concentration 1 mM) | IC50 ([1]; Homo sapiens, K562, 72 hours) | IC50 ([2]; Homo sapiens, U-937, 72 hours) | other results
1 | CN1CCN(C2CCN(c3ccc(Nc4ncc(Cl)c(O[C@@H]5CO[C@H]6[C@@H]5OC[C@H]6O)n4)c(Cl)c3)CC2)CC1 [LS 4-148] | 6.47 µM | – | – | – | – | – | – | –
2 | C=CC(=O)Nc1cc(Nc2ncc(Cl)c(O[C@@H]3CO[C@H]4[C@@H]3OC[C@H]4OC)n2)ccc1N1CCOCC1 [LS 6-48] | 0.00387 µM | 1.13 µM | 2.75 µM | 637 nM | 0.0261 µM | 1550 nM | 403 nM | –
3 | C=CC(=O)Nc1cc(Nc2ncc(Cl)c(O[C@@H]3CO[C@@H]4CCO[C@@H]43)n2)ccc1N(C)CCN(C)C [LS 6-121] | – | – | 2.93 µM | 278 nM | – | – | – | IC50 (JAK2): 1.06 µM; IC50 (JAK3): 0.0014 µM and 0.0016 µM; JAK3 kinase inhibitory activity and selectivity (in words) (JAK3): strong and selective JAK3 kinase inhibitory activity; IC50 ([2]; 72 hours): 31.3 nM
4 | C=CC(=O)Nc1cc(Nc2ncc(Cl)c(O[C@@H]3CO[C@H]4[C@@H]3OC[C@H]4OC(C)C)n2)ccc1N(C)CCN(C)C [LS 7-18] | 0.0015 µM | 2.66 µM | – | 4420 nM | 0.0023 µM | – | 44 nM | IC50 (JAK1; in μM): > 10 µM; JAK3 kinase inhibitory activity and selectivity (in words) (JAK3): strong and selective JAK3 kinase inhibitory activity
5 | C=CC(=O)Nc1cc(Nc2ncc(Cl)c(O[C@@H]3CO[C@H]4[C@@H]3OC[C@H]4O)n2)c(OC)cc1N1CCC(N2CCN(C)CC2)CC1 [LS 5-3] | 0.133 µM | – | – | – | – | 376 nM | 5380 nM | IC50 (JAK2; ATP concentration Km, in μM): > 10 µM; IC50 (JAK1; in μM): > 10 µM; IC50 [3]: 8670 nM; IC50 [4]: 8080 nM
6 | C=CC(=O)Nc1cc(Nc2ncc(Cl)c(O[C@@H]3CO[C@H]4[C@@H]3OC[C@H]4O)n2)ccc1N1C[C@@H]2C[C@H]1CO2 [LS 5-152, N-(2-(((1S,4S)-2-oxa-5-azabicyclic[2.2.1]heptane-5-yl)-5-(5-chloro-4-(((3R,3aR,6R, 6aR)-6-hydroxyhexahydrofurano[3,2-b]furan-3-yl)oxygen)pyrimidin-2-yl)amino)phenyl) acrylamide] | 0.0015 µM | – | 0.19 µM | 148 nM | 0.00129 µM | 47.2 nM | 19.6 nM | IC50 [3]: 288 nM; IC50 [4]: 428 nM
7 | C=CC(=O)Nc1cc(Nc2ncc(Cl)c(O[C@@H]3CO[C@H]4[C@@H]3OC[C@H]4F)n2)ccc1N1CCN(CC)CC1 [LS 6-89] | 0.00426 µM | 1.71 µM | 15.6 µM | 805 nM | 0.00654 µM | 620 nM | 171 nM | –
8 | C=CC(=O)Nc1cc(Nc2ncc(Cl)c(O[C@@H]3CO[C@H]4[C@@H]3OC[C@H]4OC)n2)ccc1N1CCN(C)[C@@H](C)C1 [LS 6-49] | 0.0017 µM | 1.1 µM | 4.69 µM | 1190 nM | 0.00292 µM | 371 nM | 79.4 nM | JAK3 kinase inhibitory activity and selectivity (in words) (JAK3): strong and selective JAK3 kinase inhibitory activity
9 | CN1CCN(c2ccc(Nc3ncc(Cl)c(O[C@@H]4CO[C@H]5[C@@H]4OC[C@H]5O)n3)cc2)CC1 [LS 4-144] | 0.0848 µM | – | – | – | – | – | – | –
10 | C=CC(=O)Nc1cc(Nc2ncc(Cl)c(O[C@@H]3CO[C@H]4[C@@H]3OC[C@@H]4F)n2)ccc1N1CCN(CC)CC1 [LS 6-78] | 0.00402 µM | 1.67 µM | 12.6 µM | 912 nM | 0.00714 µM | 525 nM | 146 nM | –
11 | C=CC(=O)Nc1cc(Nc2ncc(Cl)c(O[C@@H]3CO[C@H]4[C@@H]3OC[C@@H]4F)n2)ccc1N1CCC(N2CCN(C)CC2)CC1 [LS 6-59] | – | – | 7.04 µM | 435 nM | – | – | – | IC50 (JAK2): 1.08 µM; IC50 ([1]; 72 hours): 281 nM; IC50 ([2]; 72 hours): 129 nM
12 | COc1cc(Nc2ncc(Cl)c(O[C@H]3CO[C@H]4[C@@H]3OC[C@H]4O)n2)ccc1N1CCN(C)CC1 [LS 4-106] | 0.638 µM | – | – | – | – | – | – | –
13 | C=CC(=O)Nc1cc(Nc2ncc(C)c(O[C@@H]3CO[C@H]4[C@@H]3OC[C@H]4O)n2)ccc1N1CCC(N2CCN(C)CC2)CC1 [LS 5-133, N-(5-((4-(((3R,3aR,6R, 6aR)-6-hydroxyhexahydrofurano[3,2-b]furan-3-yl)oxygen)-5-methylpyrimidin-2-yl)amino)-2-(4-(4-methylpiperazin-1-yl)piperidin-1-yl)phenyl) acrylamide] | 0.00634 µM | 0.417 µM | 0.685 µM | 313 nM | – | – | – | –
14 | CN1CCN(C2CCN(c3c(Cl)cc(Nc4ncc(Cl)c(O[C@@H]5CO[C@H]6[C@@H]5OC[C@H]6O)n4)cc3Cl)CC2)CC1 [LS 5-16] | 0.141 µM | 0.949 µM | 0.354 µM | – | – | – | – | –
15 | COc1cc(N2CCC(N3CCN(C)CC3)CC2)ccc1Nc1ncc(Cl)c(O[C@H]2CO[C@H]3[C@@H]2OC[C@H]3O)n1 [LS 4-100] | – | – | – | – | – | – | – | IC50 (JAK3; ATP concentration Km, in μM): > 10 µM
16 | CN1CCN(C2CCN(c3ccc(Nc4ncc(Cl)c(O[C@@H]5CO[C@H]6[C@@H]5OC[C@@H]6O)n4)cc3Cl)CC2)CC1 [LS 4-97] | – | 0.406 µM | – | – | – | – | – | –
17 | CN1CCN(C2CCN(c3ccc(Nc4ncc(Cl)c(O[C@H]5CO[C@H]6[C@@H]5OC[C@H]6O)n4)cc3Cl)CC2)CC1 [LS 3-96] | – | 8.16 µM | – | – | – | – | – | –
18 | C=CC(=O)Nc1cc(Nc2ncc(Cl)c(O[C@@H]3CO[C@H]4[C@@H]3OC[C@@H]4F)n2)ccc1N(C)CCN(C)C [LS 6-77] | 0.00128 µM | 2.47 µM | 33.9 µM | 921 nM | 0.00155 µM | 906 nM | 40.7 nM | JAK3 kinase inhibitory activity and selectivity (in words) (JAK3): strong and selective JAK3 kinase inhibitory activity
19 | CN1CCN(C2CCN(c3ccc(Nc4ncc(Cl)c(O[C@@H]5CO[C@H]6[C@@H]5OC[C@H]6O)n4)cc3Cl)CC2)CC1 [LS 4-104] | – | 0.291 µM | – | – | – | 542 nM | – | IC50 [3]: 2050 nM; IC50 [4]: 2420 nM
20 | C=CC(=O)Nc1cc(Nc2ncc(Cl)c(O[C@@H]3CO[C@H]4[C@@H]3OC[C@H]4OCC)n2)ccc1N(C)CCN(C)C [LS 7-13] | 0.0013 µM | 1.89 µM | 8.6 µM | 1660 nM | 0.0019 µM | – | 29.9 nM | JAK3 kinase inhibitory activity and selectivity (in words) (JAK3): strong and selective JAK3 kinase inhibitory activity
21 | CCN1CCN(Cc2ccc(Nc3ncc(Cl)c(O[C@@H]4CO[C@H]5[C@@H]4OC[C@H]5O)n3)nc2)CC1 [LS 5-54] | 5.75 µM | – | – | – | – | – | – | IC50 (JAK2; ATP concentration Km, in μM): > 10 µM; IC50 (JAK1; in μM): > 10 µM
22 | N#CC1(c2ccc(Nc3ncc(Cl)c(O[C@@H]4CO[C@H]5[C@@H]4OC[C@H]5O)n3)cc2)CCCC1 [LS 5-58] | 0.12 µM | 0.67 µM | 0.161 µM | – | – | – | – | –
23 | Cc1cc(Nc2ncc(Cl)c(O[C@@H]3CO[C@H]4[C@@H]3OC[C@H]4O)n2)cnc1N1CCC(N2CCN(C)CC2)CC1 [LS 4-150] | 0.084 µM | – | – | – | – | – | – | –
24 | C=CC(=O)Nc1cc(Nc2ncc(Cl)c(O[C@@H]3CO[C@H]4[C@@H]3OC[C@H]4F)n2)ccc1N(C)CCN(C)C [LS 6-88] | – | – | 87.1 µM | 930 nM | – | – | – | IC50 (JAK2): 1.72 µM; IC50 (JAK3): 0.00135 µM and 0.00153 µM; JAK3 kinase inhibitory activity and selectivity (in words) (JAK3): strong and selective JAK3 kinase inhibitory activity; IC50 ([1]; 72 hours): 410 nM; IC50 ([2]; 72 hours): 50.3 nM
25 | C=CC(=O)Nc1cc(Nc2ncc(Cl)c(O[C@@H]3CO[C@H]4[C@@H]3OCC4(F)F)n2)ccc1N(C)CCN(C)C [LS 6-105] | – | – | 4.22 µM | 272 nM | – | – | – | IC50 (JAK2): 0.589 µM; IC50 (JAK3): 0.00113 µM and 0.00132 µM; JAK3 kinase inhibitory activity and selectivity (in words) (JAK3): strong and selective JAK3 kinase inhibitory activity; IC50 ([1]; 72 hours): 345 nM; IC50 ([2]; 72 hours): 33.8 nM
26 | CN1CCN(c2ccc(Nc3ncc(Cl)c(O[C@@H]4CO[C@H]5[C@@H]4OC[C@H]5O)n3)cc2Cl)CC1 [LS 4-142] | 0.0495 µM | – | – | – | – | – | – | –
